# Measured values published in US20080254010A1, “Controlling Clostridium difficile-Associated Disease in the Gastrointestinal Tract” (priority 2007, published 2008).
# System: C. difficile spores
# Assay: Inhibition of germination of spores and/or inhibition of growth in Duncan and Foster growth medium
# Format: cell-based, Clostridium difficile
# Details: Clostridioides difficile; 0.7 mM in growth medium; by 17 h; read-out: inhibition of spore germination
compound,measurement,value
CC/C=C\C/C=C\C/C=C\CCCCCCCC(=O)O [linolenic acid],inhibition at 700 µM,~5%
